Assay results: article PMC5866846 (Archives of Toxicology, 2017)

Tests used:
CYP3A4 gene expression = CYP3A4 gene expression in upcyte hepatocytes (Fluidigm RT-PCR); details: 5 µM, 72 h, both cell strains
Text: (§1) Total RNA was isolated from cells using the Direct-zol™ RNA MiniPrep kit (Zymo Research Corp., Irvine, California). cDNA was synthesized using TaqMan Reverse Transcription Reagents (Life technologies, Applera GmbH, Darmstadt, Germany) and the expression of 25 genes representative of phase I and phase II drug metabolism and transport was quantified by Fluidigm’s BioMark HD high-throughput quantitative chip platform (Fluidigm Corporation, San Francisco, USA). For relative gene expression analysis, the delta-delta-Ct (ΔΔCt) method was used: the Ct values of the target mRNA were first normalized to those of the endogenous control glyceraldehyde-3-phosphate dehydrogenase (GAPDH) followed by dividing values of experimental samples by their corresponding DMSO-treated controls to calculate the x-fold changes of mRNA expression.
(§2) In HLM and supersome™ incubations the formation rate is given as nmol µg^−1 min^−1 and fmol pmol^−1 min^−1, respectively, and was calculated as the mean ± SD. […] The intrinsic Clearance (Clint) was given as Vmax/Km ratio. […] Activity of CYP enzymes in induction assays is given as the fold-change (mean ± SD) compared to the corresponding DMSO-treated control. […] Gene expression patterns of treated cells are given as fold-change compared to the corresponding DMSO-treated control samples, as described above. […] In induction and inhibition experiments corresponding EC50 and IC50 values were calculated by nonlinear regression. In all experiments a level of probability (p) ≤ 0.05 for statistical testing was considered significant.
(§3) As control 0.05 % DMSO was used. The basal CYP activity and induction of CYP activity compared to the DMSO control were measured via HPLC-ESI-MS/MS.

CYP1A1 gene expression = CYP1A1 gene expression in upcyte hepatocytes (Fluidigm RT-PCR); type: cell-based, human; details: 5 µM, 72 h, both cell strains
Text: (§4) Differences between induced and control samples were compared using Welch’s t-test (GraphPad Prism, version 5.04), when the fold-change was considered biologically relevant (1.5-fold increase or decrease in fold-changes) and corrected for multiple testing according to Bonferroni. […] An unpaired t-test assuming unequal variances was used for testing of differences in the expression patterns, when the fold-change was considered biologically relevant (1.5-fold increase or decrease in fold-changes) and corrected using Bonferroni adjustments.

CYP1A2 = CYP1A2 activity in upcyte hepatocytes after treatment (probe substrate cocktail)
Method: (§5) Cells were cultivated in hepatocyte culture medium at 37 °C and 5 °% CO2 in a humidified incubator. Before starting experiments, cells were cultivated in hepatocyte culture medium containing 0.5% (v/v) DMSO (Preculture medium) for 5 days (density of 0.8 × 10^4 cells/cm^2) and were subcultivated in high-performance medium containing 0.1% (v/v) DMSO (Metabolism conditioning medium) for 3–5 days (density of 1.6 × 10^5 cells/cm^2, confluence). The medium was replaced every 2–3 days.
as §2, §3

[1] = system: CYP1A2, 2C19, 2C9, 2B6, 3A4 and 2C8; assay: CYP activity in upcyte hepatocytes after treatment, all tested CYP isoenzymes together; type: cell-based, human; details: 5 µM, 72 h
Method: as §5, §2

CYP2B6 = CYP2B6 activity in upcyte hepatocytes after treatment (probe substrate cocktail); details: human, probe bupropion (25 µM)
Method: as §5, §2, §3

ABCG2 gene expression = ABCG2 gene expression in upcyte hepatocytes (Fluidigm RT-PCR); type: cell-based, human; details: 5 µM, 72 h, both cell strains
Text: as §4

SLC22A7 gene expression = SLC22A7 gene expression in upcyte hepatocytes (Fluidigm RT-PCR); type: cell-based, human; details: 5 µM, 72 h, both cell strains
Text: as §1
In HLM and supersome™ incubations the formation rate is given as nmol µg^−1 min^−1 and fmol pmol^−1 min^−1, respectively, and was calculated as the mean ± SD. […] The intrinsic Clearance (Clint) was given as Vmax/Km ratio. […] In induction and inhibition experiments corresponding EC50 and IC50 values were calculated by nonlinear regression. […]
as §3

[2] = system: upcyte hepatocytes 653-03 2D6; assay: Tam metabolism in upcyte hepatocytes 653-03 2D6, metabolites in culture medium; type: in vitro ADME, human
Method: (§6) The medium was replaced every 2–3 days. […].
(§7) The culture medium was collected after 24, 48, 72, 96 and 144 h followed by metabolite measurements using HPLC-ESI-MS/MS.
(§8) Protein was precipitated by the addition of ACN containing 1% of acetic acid and the corresponding deuterated internal standards to the same volume of the sample followed by centrifugation at 20.000 g for 15 min at RT. […] Analytes were separated on a Zorbax Eclipse Plus C18 column (1.8 µm, 100 × 2.1 mm, Agilent technologies) and detected on a 6460 triple quadrupole mass spectrometer (Agilent technologies) in positive ESI MRM mode. Glucuronides of estrogen-like metabolites were detected separately via MS/MS-measurements in negative ESI MRM mode.
(§9) […]. […] […].

CYP3A4 = CYP3A4 activity in upcyte hepatocytes after treatment (probe substrate cocktail); details: human, probe atorvastatin (35 µM), EC50 of induction of CYP3A4 activity, upcyte hepatocytes, 72 h, 50 pM to 5 µM
Method: as §5, §2, §3

[3] = system: upcyte hepatocytes 653-03; assay: Tam metabolism in upcyte hepatocytes 653-03 (parental), metabolites in culture medium; type: in vitro ADME, human; details: 1 µM Tam, 653-03 cells
Method: as §6, §7, §8, §9

estrogen receptor = system: estrogen receptor; design: method as in Johnson et al. [1989]; Murphy et al. [1990]; details: in vitro, estrogen-dependent breast cancer cell lines; ref Johnson et al. [1989]; Murphy et al. [1990]; cited from earlier work
SLC10A1 gene expression = SLC10A1 gene expression in upcyte hepatocytes (Fluidigm RT-PCR); type: cell-based, human; details: 5 µM, 72 h, both cell strains
Text: as §4

CYP2C19 = CYP2C19 (Homo sapiens, UniProt P33261); assay: CYP2C19 activity in upcyte hepatocytes after treatment (probe substrate cocktail); type: cell-based; design: host or cells: upcyte hepatocytes 653-03 and 653-03 #138 (653-03 2D6); details: upcyte hepatocytes, 72 h, 50 pM to 5 µM; read-out: EC50 of induction of CYP2C19 activity
Method: as §5, §2, §3

CYP2C9 = CYP2C9 (Homo sapiens, UniProt P11712); assay: CYP2C9 activity in upcyte hepatocytes after treatment (probe substrate cocktail); type: cell-based; design: host or cells: upcyte hepatocytes 653-03 and 653-03 #138 (653-03 2D6); details: upcyte hepatocytes, 72 h, 50 pM to 5 µM; read-out: EC50 of induction of CYP2C9 activity
Method: as §5, §2, §3

CYP2C8 = target: T1, CYP2C8 (Homo sapiens, UniProt P10632); assay: CYP2C8 activity in upcyte hepatocytes after treatment (probe substrate cocktail); type: cell-based; design: host or cells: upcyte hepatocytes 653-03 and 653-03 #138 (653-03 2D6); details: upcyte hepatocytes, 72 h, 50 pM to 5 µM; read-out: EC50 of induction of CYP2C8 activity
T1 sequence (P10632 1-490): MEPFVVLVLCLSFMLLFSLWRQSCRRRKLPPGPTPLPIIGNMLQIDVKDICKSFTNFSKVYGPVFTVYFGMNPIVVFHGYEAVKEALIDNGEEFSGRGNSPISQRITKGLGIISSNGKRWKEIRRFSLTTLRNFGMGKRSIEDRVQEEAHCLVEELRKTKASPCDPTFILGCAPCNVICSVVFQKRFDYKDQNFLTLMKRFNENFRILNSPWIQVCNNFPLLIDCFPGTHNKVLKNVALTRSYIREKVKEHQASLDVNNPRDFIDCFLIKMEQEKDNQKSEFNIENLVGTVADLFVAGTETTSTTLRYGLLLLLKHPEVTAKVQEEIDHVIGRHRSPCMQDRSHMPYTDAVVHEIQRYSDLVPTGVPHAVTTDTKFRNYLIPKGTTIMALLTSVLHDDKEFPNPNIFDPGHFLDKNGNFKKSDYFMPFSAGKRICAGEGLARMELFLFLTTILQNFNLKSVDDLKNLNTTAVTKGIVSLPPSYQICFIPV
Method: as §5, §2, §3

Chain of CYP2C19 (P33261 whole entry): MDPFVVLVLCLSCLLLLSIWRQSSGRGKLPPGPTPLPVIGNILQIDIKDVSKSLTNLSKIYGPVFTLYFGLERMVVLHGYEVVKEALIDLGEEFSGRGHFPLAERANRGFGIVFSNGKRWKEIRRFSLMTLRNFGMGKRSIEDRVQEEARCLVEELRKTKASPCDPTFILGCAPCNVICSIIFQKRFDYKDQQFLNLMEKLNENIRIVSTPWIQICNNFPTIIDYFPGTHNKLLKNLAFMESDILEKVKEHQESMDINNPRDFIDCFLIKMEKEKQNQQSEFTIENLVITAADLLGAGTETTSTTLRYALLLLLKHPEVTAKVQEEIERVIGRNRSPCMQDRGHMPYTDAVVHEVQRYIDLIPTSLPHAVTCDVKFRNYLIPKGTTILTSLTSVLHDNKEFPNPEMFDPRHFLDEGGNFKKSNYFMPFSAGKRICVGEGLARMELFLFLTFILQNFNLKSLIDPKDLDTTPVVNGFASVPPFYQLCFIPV
Chain of CYP2C9 (P11712 whole entry): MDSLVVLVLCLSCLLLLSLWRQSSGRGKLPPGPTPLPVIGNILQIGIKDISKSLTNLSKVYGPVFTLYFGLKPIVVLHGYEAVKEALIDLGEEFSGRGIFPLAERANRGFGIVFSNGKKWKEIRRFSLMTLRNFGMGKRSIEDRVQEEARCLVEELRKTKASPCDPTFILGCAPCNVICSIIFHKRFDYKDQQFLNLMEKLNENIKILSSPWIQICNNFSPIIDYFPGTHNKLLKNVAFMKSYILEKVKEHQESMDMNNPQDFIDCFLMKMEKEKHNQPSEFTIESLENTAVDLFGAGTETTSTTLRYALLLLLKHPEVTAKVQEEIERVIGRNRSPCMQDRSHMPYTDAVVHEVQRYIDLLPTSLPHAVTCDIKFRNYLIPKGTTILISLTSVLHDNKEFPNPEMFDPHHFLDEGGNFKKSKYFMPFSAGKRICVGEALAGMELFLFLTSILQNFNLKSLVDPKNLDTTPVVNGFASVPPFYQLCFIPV

With `CCC(=C(c1ccc(O)cc1)c1ccc(O)cc1)c1ccccc1` [Tam-Bis, 4-[1-(4-hydroxyphenyl)-2-phenylbut-1-en-1-yl]phenol] the “CYP3A4 gene expression, induction vs DMSO control” value (CYP3A4 gene expression) was “up to 4.5 fold”, the “CYP3A4 gene expression, induction vs DMSO control” value (CYP3A4 gene expression; listed as tamoxifen bisphenol) was “up to 5.6 fold” and the “CYP1A1 gene expression, induction vs DMSO control” value (CYP1A1 gene expression) was “up to 4.5 fold”. For the same molecule, the EC50 at 72 h (CYP1A2; human, EC50 of induction of CYP1A2 activity, 50 pM to 5 µM) was greater than 400 nM, the EC50 (CYP1A2; read-out: EC50 of induction of CYP1A2 activity, 72 h, 50 pM to 5 µM) was 518 nM and the “inhibitory effect on the tested CYP enzymes” value [1] was “no inhibitory effect”. The EC50 at 72 h (CYP2B6) was 187 nM, the “ABCG2 gene expression, induction vs DMSO control” value (ABCG2 gene expression) was “up to 4.5 fold” and the “SLC22A7 gene expression, fold lower than DMSO control” value (SLC22A7 gene expression) was “up to 2.5 fold”. The “concentration in the supernatant” value ([2]; 1 µM Tam, 653-03 2D6 cells) was “up to 87.5 pM”, the “concentration in the supernatant of 653-03 2D6 cells relative to parental cells” value ([2]; cells incubated with 1 µM Tam up to 144 h) was “up to 4 times” and the EC50 at 72 h (CYP3A4) was 178 nM. The “concentration in the supernatant” value [3] was 30.6 pM, the “agonism regarding estrogen-regulated mRNA expression” value (estrogen receptor) was “full agonists” and the “SLC10A1 gene expression, downregulation (fold lower)” value (SLC10A1 gene expression) was “up to 2.5 fold”. For the same molecule, the EC50 (CYP2C19) was 30.5 nM, the EC50 (CYP2C9) was 488 nM and the EC50 (CYP2C8) was 400 nM.
